“Also recorded” adds a separate entry of the source.
How the values were obtained:
[1] = system: sciatic nerve or brachial plexus nerve sites (adipose, nerve, muscle tissue); assay: In vivo imaging following direct/topical administration on rodent nerve sites; design: species or system male CD-1 mice; settings: for nerve accumulation: summary of in vitro, ex vivo and in vivo characterization
From the text: In vivo images were acquired using a previously published, custom-built small animal fluorescence imaging system, described briefly here.^27 Fluorescent images were obtained using a Qimaging EXi Blue monochrome camera (Surrey, British Columbia, CA) with a removable Bayer mask for collection of co-registered color and fluorescence images. A Photofluor II broad band light source (89 North) was expanded onto the surgical field through a liquid light guide and used unfiltered for white light illumination. Nile Red and NR5 were excitated using a 545 t 12.5 nm bandpass filter, while fluorescence emission images were collected with a 605±35 nm bandpass filter. Oxazine 4 (Exciton, West Chester, Ohio) was used for nerve and adipose co-staining and ratiometic imaging studies. Oxazine 4 was excited using a 620±30 nm bandpass filter, while fluorescence emission images were collected through a 700±37.5 nm bandpass filter. Approval for the use of animals in the study was obtained from the Institutional Animal Care and Use Committee (IACUC) at Oregon Health and Science University (OHSU). In vivo staining studies were carried out on male CD-1 mice using an optimized direct/topical administration protocol.^2 Staining was performed concurrently on no more than two nerve sites (sciatic nerve or brachial plexus) per mouse. Nile Red and all Nile Red derivatives were formulated in a previously published co-solvent formulation (10% DMSO, 5% Kolliphor, 63.75% serum and 21.25% PBS^14) at a final concentration of 100 μM. Each formulated fluorophore was incubated for 5 minutes on the nerve site (n=4 nerve sites/fluorophore), followed by 9 short flushes with PBS. The nerve site was then incubated with blank co-solvent not containing fluorophore for 5 minutes, followed again by 9 short flushes with PBS.

[2] = system: U2OS human osteosarcoma cell line; assay: Nile Red derivative cell staining and imaging, fixed and live cells; type: cell-based; settings: 1 μM; for fluorescence intensity in fixed cells: U2OS fixed with 4% PFA, imaged without washing; for fluorescence intensity in fixed cells / fluorescence intensity in live cells without washing / structures observed in live cells without washing: 5 min; for fluorescence intensity in live cells without washing / structures observed in live cells without washing: U2OS live, imaged in staining solution
Procedure: The U2OS human osteosarcoma cell line was cultured in Dulbecco's Modified Eagle Medium (DMEM, Thermo Fisher Scientific, Waltham, Mass.) with 10% fetal bovine serum (FBS, VWR, Radnor, Pa.) and 1% Penicillin/Steptomycin 100× (Thermo Fisher Scientific) at 37° C. in 5% CO2. For live cell imaging studies, Fluorobrite DMEM media (Thermo Fisher Scientific) was used in place of DMEM. For imaging studies, cells were grown in 96-well glass bottom plates (Cellvis, Mountain View, Calif.) for 48 hours, with a final confluence of <80%. Nile Red and its derivatives were prepared at 1-10 mM stock concentration in DMSO and diluted into media or buffer for cell staining and imaging studies.
Cell staining studies were completed on fixed and live U2OS cells using Nile Red and each synthesized Nile Red derivative described as follows. For fixed cell staining, cells were washed once with 1× phosphate buffered saline (PBS), then fixed with 4% paraformaldehyde (PFA) for 20 minutes at room temperature. The PFA was removed and each well was washed three times for 5 mins per wash (3×5 mins) with 1×PBS. The Nile Red fluorophores were diluted into 1×PBS to a final concentration of 1 μM, incubated for 5 minutes with the cells, and images were collected without washing. Live cell staining was completed using two methods. First, cells were washed once with Fluorobrite DMEM. The Nile Red fluorophore solution was prepared in Fluorobrite DMEM by diluting to a final concentration of 1 μM for staining, where cells were stained for 5 minutes. The fluorophore containing media was removed and the cells were fixed for 20 minutes using 4% PFA. Cells were then washed 3×5 mins with Fluorobrite DMEM prior to imaging. Second, cells were washed with Fluorobrite DMEM without FBS once for 5 minutes. Nile Red fluorophore solutions were prepared in Fluorobrite without FBS at 1 μM final concentration for cell staining. The cells were stained with the prepared solution for 5 minutes and imaged in the staining solution. All images were collected at their ideal exposure times to permit visualization of stained intracellular structures.
All ex vivo and cellular fluorescence and white light images were collected using a Zeiss AxioObserver inverted fluorescence microscope (Carl Zeiss, Oberkochen, Germany). All cell images were collected at 40× magnification and all tissue section images were collected at 10× magnification. Fluorescence excitation was completed using a Photofluor II broad band light source (89 North, Burlington, Vt.) filtered with a 545±12.5 nm bandpass excitation filter. Fluorescence images were collected using a 605±35 nm bandpass emission filter and a AxioCam 506 monochromo camera (Zeiss). All Filters were Purchased from Chroma Technologies (Bellows Falls, Vt.).

[3] = 100 μM, immediately following direct administration
[4] = 30 minutes post direct administration
[5] = immediately following direct administration

SMILES | tissue specific fluorescence intensity [1, 3] | adipose to nerve contrast [1, 4] | adipose to muscle ratio [1, 5] | adipose to nerve ratio [1, 5] | tissue-specific contrast, adipose signal ([1]; out to 120 minutes after direct administration) | nerve accumulation [1] | fluorescence intensity in fixed cells [2] | fluorescence intensity in live cells without washing [2] | structures observed in live cells without washing [2] | fluorescence intensity in both the fixed and live in vitro imaging studies ([2]; U2OS) | tissue specific fluorescence intensity ([1]; 30 minutes after direct administration) | adipose to muscle contrast [1, 4]
CCN(CC)c1ccc2nc3c4ccc(-c5ccc(C#N)cc5)cc4c(=O)cc-3oc2c1 [NR5, 4-(9-(diethylamino)-5-oxo-5H-benzo[a]phenoxazin-3-yl)benzonitrile] | highest fluorescence signal compared to the other Nile Red derivatives; also recorded: highest fluorescence intensity in the adipose, nerve and muscle tissues of the synthesized Nile Red derivatives | higher adipose-to-nerve contrast compared to Nile Red; also recorded: increased | lower than Nile Red, adipose to muscle contrast was similar | increased contrast over control autofluorescence with similar adipose to nerve contrast | adipose signal was maintained throughout the 120 minute imaging time | minimal nerve accumulation | bright | brightest of the synthesized derivatives | Prominent lipid droplet like structures | brightest fluorescence intensity of the Nile Red derivatives |  | 
CCN(CC)c1ccc2nc3c4ccccc4c(=O)cc-3oc2c1 [Nile Red] | highest fluorescence signal compared to the other Nile Red derivatives; also recorded: strong fluorescence intensity | decreased | greatest adipose to muscle contrast | increased contrast over control autofluorescence with similar adipose to nerve contrast |  | some nerve accumulation | bright | brightest overall | Prominent lipid droplet like structures |  | decrease in adipose, nerve and muscle fluorescence | greatest

Reference: patent publication US20210115000A1, “NILE RED DERIVATIVES FOR IMPROVED RATIOMETRIC IMAGING FOR NERVE SPECIFIC CONTRAST” (Oregon Health & Sciences University, priority 2018, published 2021)
